Source: ChEMBL document CHEMBL1201862, “PubChem BioAssay data set” (2004)
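Briefly, cells in 96-well plates were exposed to five compound concentrations for 48 h, and endpoints were estimated by linear interpolation. GI50: concentration for 50% inhibition of growth.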 Calls of active or inactive are those of the source. Rule as the data show it: active = GI50 up to about 1.1 µM and inactive = higher.

Key:
Test in all cases: NCI tumour cell line growth inhibition, 48 h
A498 = test system: A498
A549 = test system: A549
ACHN = test system: ACHN
BT-549 = test system: BT-549
IGROV-1 = test system: IGROV-1
K562 = test system: K562
KM12 = test system: KM12
M14 = test system: M14
MOLT-4 = test system: MOLT-4
NCI-H23 = test system: NCI-H23
NCI-H460 = test system: NCI-H460
OVCAR-3 = test system: OVCAR-3
RPMI-8226 = test system: RPMI-8226
SF-268 = test system: SF-268
SK-MEL-5 = test system: SK-MEL-5
SN12C = test system: SN12C
SR = test system: SR
U-251 = test system: U-251
UACC-62 = test system: UACC-62
SK-OV-3 = test system: SK-OV-3

COC(c1ccc(C(C)(C)C)cc1)(c1ccc(C(C)(C)C)cc1)c1ccc(C(C)(C)C)cc1
GI50 (A498): > 100 µM (inactive)
GI50 (A549): > 100 µM (inactive)
GI50 (ACHN): > 100 µM (inactive)
GI50 (BT-549): > 100 µM (inactive)
GI50 (IGROV-1): > 100 µM (inactive)
GI50 (K562): > 100 µM (inactive)
GI50 (KM12): > 100 µM (inactive)
GI50 (M14): 70.5 µM (inactive)
GI50 (MOLT-4): > 100 µM (inactive)
GI50 (NCI-H23): > 100 µM (inactive)
GI50 (NCI-H460): > 100 µM (inactive)
GI50 (OVCAR-3): > 100 µM (inactive)
GI50 (RPMI-8226): > 100 µM (inactive)
GI50 (SF-268): > 100 µM (inactive)
GI50 (SK-MEL-5): > 100 µM (inactive)
GI50 (SN12C): > 100 µM (inactive)
GI50 (SR): > 100 µM (inactive)
GI50 (U-251): > 100 µM (inactive)
GI50 (UACC-62): > 100 µM (inactive)

CC(=O)OCC1OC(n2nc(Cc3ccccc3)c(=S)[nH]c2=S)C(OC(C)=O)C(OC(C)=O)C1OC(C)=O (stereo unspecified)
GI50 (A498): 32.1 µM (inactive)
GI50 (A549): 84.1 µM (inactive)
GI50 (ACHN): > 100 µM (inactive)
GI50 (BT-549): 19.6 µM (inactive)
GI50 (IGROV-1): 25 µM (inactive)
GI50 (K562): 26.9 µM (inactive)
GI50 (KM12): 20.5 µM (inactive)
GI50 (M14): 19.4 µM (inactive)
GI50 (MOLT-4): 23.2 µM (inactive)
GI50 (NCI-H23): 20.3 µM (inactive)
GI50 (NCI-H460): 69 µM (inactive)
GI50 (OVCAR-3): 18.7 µM (inactive)
GI50 (SF-268): 21.6 µM (inactive)
GI50 (SK-MEL-5): 82 µM (inactive)
GI50 (SK-OV-3): 50.7 µM (inactive)
GI50 (SN12C): 21.5 µM (inactive)
GI50 (SR): 31.2 µM (inactive)
GI50 (U-251): 22.1 µM (inactive)
GI50 (UACC-62): 18.5 µM (inactive)

COc1ccc(-c2nc(N)c(C#N)c3c2CCS(=O)(=O)c2ccc(C)cc2-3)cc1OC
GI50 (A498): 23.3 µM (inactive)
GI50 (A549): 26.4 µM (inactive)
GI50 (ACHN): 48.4 µM (inactive)
GI50 (BT-549): 21.8 µM (inactive)
GI50 (IGROV-1): 31.6 µM (inactive)
GI50 (K562): 10.7 µM (inactive)
GI50 (KM12): 19.4 µM (inactive)
GI50 (M14): 28.4 µM (inactive)
GI50 (NCI-H23): 31.5 µM (inactive)
GI50 (NCI-H460): 28.2 µM (inactive)
GI50 (OVCAR-3): 39.6 µM (inactive)
GI50 (SF-268): 51.2 µM (inactive)
GI50 (SK-MEL-5): 20.7 µM (inactive)
GI50 (SN12C): 50.2 µM (inactive)
GI50 (SR): 0.252 µM (active)
GI50 (U-251): 40.6 µM (inactive)
GI50 (UACC-62): 15.2 µM (inactive)

COC(=O)c1ccccc1/C=C1\Cc2c(ccc3c2CCC3)C1=O
GI50 (A498): > 100 µM (inactive)
GI50 (A549): > 100 µM (inactive)
GI50 (ACHN): > 100 µM (inactive)
GI50 (BT-549): > 100 µM (inactive)
GI50 (IGROV-1): > 100 µM (inactive)
GI50 (K562): > 100 µM (inactive)
GI50 (KM12): > 100 µM (inactive)
GI50 (M14): > 100 µM (inactive)
GI50 (MOLT-4): > 100 µM (inactive)
GI50 (NCI-H23): > 100 µM (inactive)
GI50 (NCI-H460): > 100 µM (inactive)
GI50 (OVCAR-3): > 100 µM (inactive)
GI50 (RPMI-8226): > 100 µM (inactive)
GI50 (SF-268): > 100 µM (inactive)
GI50 (SK-MEL-5): > 100 µM (inactive)
GI50 (SN12C): > 100 µM (inactive)
GI50 (SR): > 100 µM (inactive)
GI50 (U-251): 68.4 µM (inactive)
GI50 (UACC-62): > 100 µM (inactive)

CCOC(=O)c1cn(-c2ccc(Cl)cc2)c(=O)n2c1nc1ccccc12
GI50 (A498): > 100 µM (inactive)
GI50 (A549): > 100 µM (inactive)
GI50 (ACHN): > 100 µM (inactive)
GI50 (BT-549): > 100 µM (inactive)
GI50 (IGROV-1): > 100 µM (inactive)
GI50 (K562): > 100 µM (inactive)
GI50 (KM12): > 100 µM (inactive)
GI50 (M14): > 100 µM (inactive)
GI50 (MOLT-4): > 100 µM (inactive)
GI50 (NCI-H23): > 100 µM (inactive)
GI50 (NCI-H460): > 100 µM (inactive)
GI50 (OVCAR-3): > 100 µM (inactive)
GI50 (RPMI-8226): > 100 µM (inactive)
GI50 (SK-MEL-5): > 100 µM (inactive)
GI50 (SN12C): > 100 µM (inactive)
GI50 (SR): > 100 µM (inactive)
GI50 (U-251): > 100 µM (inactive)
GI50 (UACC-62): > 100 µM (inactive)

CSCCCNC(=O)c1csc(-c2csc(CCNC(=O)CNC(=O)CNC(=O)OC(C)(C)C)n2)n1
GI50 (A498): > 100 µM (inactive)
GI50 (A549): > 100 µM (inactive)
GI50 (ACHN): > 100 µM (inactive)
GI50 (BT-549): > 100 µM (inactive)
GI50 (IGROV-1): > 100 µM (inactive)
GI50 (K562): > 100 µM (inactive)
GI50 (KM12): > 100 µM (inactive)
GI50 (M14): > 100 µM (inactive)
GI50 (MOLT-4): > 100 µM (inactive)
GI50 (NCI-H23): > 100 µM (inactive)
GI50 (NCI-H460): > 100 µM (inactive)
GI50 (OVCAR-3): > 100 µM (inactive)
GI50 (SF-268): > 100 µM (inactive)
GI50 (SK-MEL-5): > 100 µM (inactive)
GI50 (SK-OV-3): > 100 µM (inactive)
GI50 (SN12C): > 100 µM (inactive)
GI50 (SR): > 100 µM (inactive)
GI50 (U-251): > 100 µM (inactive)
GI50 (UACC-62): > 100 µM (inactive)
